# Measurements from patent US12129221B2, “Difluoro phenyl amide RIP1 inhibitor” (SIRONAX LTD, priority 2018, dated 2024).
# How the values were obtained:
# [1] = Prodrug enhanced metabolic stability: hepatocyte (H); assay type: in vitro ADME; set-up: key: +, Extrapolated
# From the text: (§1) Prodrug Enhanced Metabolic Stability: Liver Microsome (L), Hepatocyte (H) and PK
# [2] = Prodrug enhanced metabolic stability: PK; assay type: in vivo; set-up: key: +, Extrapolated
# From the text: as §1
# [3] = Prodrug enhanced metabolic stability: liver microsome (L); assay type: in vitro ADME; set-up: key: +, Extrapolated
# From the text: as §1
# [4] = test system: necrosis; assay: Necrosis inhibitory activity (cell necrosis / cell viability assay); assay type: cell-based; settings: Active Pro-drugs; for EC50: read-out: EC50
# From the text: Necrosis Inhibitory Activity
# Representative IC50 of hRIP1 Kinase Assay Correlated with Our IC50 of Cell Necrosis Assay: […]
H [1],PK [2],L [3],Compound,EC50 [4],EC50(nM) [4]
+,+,+,"CCC(C)(C)C(=O)N(Cc1ccccc1)OP(=O)(O)O [Compound 71, ((N-benzyl-2,2-dimethylbutanamido)oxy)phosphonic acid]",28.7 nM,
+,+,+,"CCC(C)(C)C(=O)N(Cc1ccccc1)OC(=O)C(C)(C)C [Compound 77, N-benzyl-2,2-dimethyl-N-(pivaloyloxy)butanamide]",6830 nM,
+,+,+,"CCC(C)(C)C(=O)N(Cc1ccccc1)OC(=O)[C@@H](NC(=O)OC(C)(C)C)C(C)C [Compound 79, tert-butyl (S)-(1-((N-benzyl-2,2-dimethylbutanamido)oxy)-3-methyl-1-oxobutan-2-yl)carbamate]",1430 nM,
+,+,+,"CCC(C)(C)C(=O)N(Cc1ccccc1)OC(=O)[C@@H](N)C(C)C [Compound 80, N-((L-valyl)oxy)-N-benzyl-2,2-dimethylbutanamide]",24.2 nM,
+,+,+,"CCC(C)(C)C(=O)N(Cc1ccccc1)OC(=O)CN(C)C [Compound 82, N-benzyl-N-((dimethylglycyl)oxy)-2,2-dimethylbutanamide]",116 nM,
+,+,+,"CCC(C)(C)C(=O)N(Cc1ccccc1)OC(=O)[C@@H](N)CO [Compound 83, N-((L-seryl)oxy)-N-benzyl-2,2-dimethylbutanamide]",898 nM,

# The remaining lines, values behind:
Compound,H [1],PK [2],L [3],EC50 [4],EC50(nM) [4]
"CCC(C)(C)C(=O)N(Cc1ccccc1)OP(=O)(N(C)C)N(C)C [Compound 68, N-benzyl-N-((bis(dimethylamino)phosphoryl)oxy)-2,2-dimethylbutanamide]",+,+,+,1620 nM,
"CCC(C)(C)C(=O)N(Cc1ccccc1)OCOP(=O)(OCc1ccccc1)OCc1ccccc1 [Compound 69, dibenzyl (((N-benzyl-2,2-dimethylbutanamido)oxy)methyl) phosphate]",+,+,+,,weak
"CCC(C)(C)C(=O)N(Cc1ccccc1)OP(=O)(OC)OC [Compound 70, dimethyl ((N-benzyl-2,2-dimethylbutanamido)oxy)phosphonate]",+,+,+,1700 nM,
"CCC(C)(C)C(=O)N(Cc1ccccc1)OC(=O)CCCC[C@@H]1SC[C@@H]2NC(=O)N[C@@H]21 [Compound 72, N-benzyl-2,2-dimethyl-N-((5-((3aS,4S,6aR)-2-oxohexahydro-1H-thieno[3,4-d]imidazol-4-yl)pentanoyl)oxy)butanamide]",+,+,+,159 nM,
"CCC(C)(C)C(=O)N(Cc1ccccc1)OCc1ccc(O)cc1 [Compound 73, N-benzyl-N-((4-hydroxybenzyl)oxy)-2,2-dimethylbutanamide]",+,+,+,489 nM,
"CCC(C)(C)C(=O)N(Cc1ccccc1)OC(=O)[C@@H]1CCCN1C(=O)OC(C)(C)C [Compound 81, tert-butyl (S)-2-(((N-benzyl-2,2-dimethylbutanamido)oxy)carbonyl)pyrrolidine-1-carboxylate]",+,+,+,3250 nM,
"CCOC(=O)ON(Cc1cc(F)cc(F)c1)C(=O)C(C)(C)CC [Compound 87, N-(3,5-difluorobenzyl)-N-((ethoxycarbonyl)oxy)-2,2-dimethylbutanamide]",+,+,+,67.8 nM,
